Data published in US20050101678A1, “Antibacterial composition” (priority 2000, published 2005).

Columns and labels:
Assay type in all cases: cell-based
[1] = tested on: Ax 26 Corynebacterium sp.; test: MIC microtiter plate test, axilla strain Ax 26; details: for Bacteriostatic activity Corynebact. Ax 26: Table 7, concentration for at least 80% reduction in growth during 24 hours; for Minimal inhibitory concentration (MIC) Ax 26: Table 1, growth inhibited by at least 80%, 24 h at 36° C.
Description: (§1) The different bacterial strains had been isolated from the human axilla by current microbiological practice. They were taxonomically identified by cell morphology, gram-reaction, and biochemical tests included in the Api coryne test kit (BioMerieux, France). Strain Staphylococcus epidermidis Ax25 was identified by fatty acid methyl ester analysis (FAME; German type strain collection DSMZ, Germany). The strains were maintained on Tryptic soy […] plates, this standard medium being amended with 5 g per Liter of Tween 80 and 1 g of Soybean lecithin. Plates were incubated at 36° C. for a period 48 hours. The bacteria were then swabbed from the plates and suspended in 4 ml of Müller-Hinton broth amended with 100 mg of Tween 80 per Liter (MH-Tween) and incubated again at 36° C. for 16 hours. Following incubation the bacterial suspensions were diluted in MH-Tween to obtain a final cell density of 10^6 colony forming units per ml. For each fragrance material four microtiter plates were used in the example, each microtiter plate having 8 rows, A-H, and 12 columns, 1-12.
(§2) To each column a diluted suspension of a different test organism was distributed, 100 μl per well. 1% stock solutions of the fragrance materials were then prepared in MH-Tween broth. The fragrance material was dispersed by ultrasonication into the aqueous medium to obtain a homogenous emulsion. 100 μl per well of this emulsion was then added to the first row of the microtiter plates already containing the target organisms. Serial dilution series were then prepared starting at row A and continuing until row G, each time removing 100 μl from a well and transferring it to the next well. In this way fragrance concentrations of 0.5%, 0.25%, 0.125%, 0.0625%, 0.03125%, 0.0156%, and 0.0078% were tested for their antibacterial efficacy. The reference compound Triclosan was tested at 16-fold lower concentrations. The plates were covered with plastic films and incubated for 24 h at 36° C. with shaking at 250 rpm. The turbidity developing in the microtiter plates was then examined after 24 h to determine microbial growth. The minimal concentration of fragrance inhibiting the growth of an organism by at least 80% was determined as the minimal inhibitory concentration (MIC).
(§3) Ax 25 was identified as Staphylococcus. epidermidis by FAME analysis. Identification with the Api Coryne test kit yielded the following species assignments for the remainder of the strains: Ax 26 Corynebacterium sp.; Ax 3 Corynebacterium bovis; Ax 7 Corynebacterium group G; Ax 10 Corynebacterium jeikeium; Ax 11 Corynebacterium jeikeium; Ax 12 Corynebacterium jeikeium; Ax 15 Corynebacterium jeikeium; Ax 20 Corynebacterium striatum/amycolatum; and Ax 19 Corynebacterium jeikeium. The strains were isolated from the axilla of 8 human volunteers. Based on biochemical tests and colony morphology all strains were distinct from each other, even the several strains all belonging to Corynebacterium jeikeium.

Corynebacteria = test: Activity against Corynebacteria; details: statement in words
Description: With 2-methoxy-4-(5,5,6-trimethylbicyclo[2.2.1]hept-2-yl)cyclohexan-1-ol an outstanding activity is achieved.
as §1
To each column a diluted suspension of a different test organism was distributed, 100 μl per well. 1% stock solutions of the fragrance materials were then prepared in MH-Tween broth. […]

[2] = tested on: Staphylococcus epidermidis Ax25; test: MIC microtiter plate test, axilla strain Ax 25; details: for Minimal inhibitory concentration (MIC) Ax 25: Table 1, growth inhibited by at least 80%, 24 h at 36° C.
Description: as §1, §2, §3

[3] = tested on: Ax 3 Corynebacterium bovis; test: MIC microtiter plate test, axilla strain Ax 3; details: Table 1; growth inhibited by at least 80%, 24 h at 36° C.
Description: as §1
as §2, with “The minimal concentration of fragrance inhibiting the growth of an organism by at least 80% was determined as the minimal inhibitory concentration (MIC).” left out

[4] = tested on: Ax 7 Corynebacterium group G; test: MIC microtiter plate test, axilla strain Ax 7; details: for Minimal inhibitory concentration (MIC) Ax 7: Table 1, growth inhibited by at least 80%, 24 h at 36° C.
Description: as §1, §2, §3

[5] = tested on: Ax 10 Corynebacterium jeikeium; test: MIC microtiter plate test, axilla strain Ax 10; details: Table 1; growth inhibited by at least 80%, 24 h at 36° C.
Description: as §1
as §2, with “The minimal concentration of fragrance inhibiting the growth of an organism by at least 80% was determined as the minimal inhibitory concentration (MIC).” left out

[6] = tested on: Ax 11 Corynebacterium jeikeium; test: MIC microtiter plate test, axilla strain Ax 11; details: Table 1; growth inhibited by at least 80%, 24 h at 36° C.
Description: as §1
as §2, with “The minimal concentration of fragrance inhibiting the growth of an organism by at least 80% was determined as the minimal inhibitory concentration (MIC).” left out

[7] = tested on: Ax 12 Corynebacterium jeikeium; test: MIC microtiter plate test, axilla strain Ax 12; details: Table 1; growth inhibited by at least 80%, 24 h at 36° C.
Description: as §1
as §2, with “The minimal concentration of fragrance inhibiting the growth of an organism by at least 80% was determined as the minimal inhibitory concentration (MIC).” left out

[8] = tested on: Ax 15 Corynebacterium jeikeium; test: MIC microtiter plate test, axilla strain Ax 15; details: for Minimal inhibitory concentration (MIC) Ax 15: Table 1, growth inhibited by at least 80%, 24 h at 36° C.
Description: as §1, §2, §3

[9] = tested on: Ax 20 Corynebacterium striatum/amycolatum; test: MIC microtiter plate test, axilla strain Ax 20; details: Table 1; growth inhibited by at least 80%, 24 h at 36° C.
Description: as §1
as §2, with “The minimal concentration of fragrance inhibiting the growth of an organism by at least 80% was determined as the minimal inhibitory concentration (MIC).” left out

[10] = tested on: Ax 19 Corynebacterium jeikeium; test: MIC microtiter plate test, axilla strain Ax 19; details: Table 1; growth inhibited by at least 80%, 24 h at 36° C.
Description: as §1
To each column a diluted suspension of a different test organism was distributed, 100 μl per well. 1% stock solutions of the fragrance materials were then prepared in MH-Tween broth. The fragrance material was dispersed by ultrasonication into the aqueous medium to obtain a homogenous emulsion. […]

[11] = Table 7, concentration for at least 80% reduction in growth during 24 hours

Structure (SMILES) | Bacteriostatic activity Corynebact. Ax 26 [1] | Minimal inhibitory concentration (MIC) Ax 25 [2] [% weight/volume] | Minimal inhibitory concentration (MIC) Ax 26 [1] [% weight/volume] | Minimal inhibitory concentration (MIC) Ax 3 [3] [% weight/volume] | Minimal inhibitory concentration (MIC) Ax 7 [4] [% weight/volume] | Minimal inhibitory concentration (MIC) Ax 10 [5] [% weight/volume] | Minimal inhibitory concentration (MIC) Ax 11 [6] [% weight/volume] | Minimal inhibitory concentration (MIC) Ax 12 [7] [% weight/volume] | Minimal inhibitory concentration (MIC) Ax 15 [8] | Minimal inhibitory concentration (MIC) Ax 20 [9] [% weight/volume] | also measured
COC1CC(C2CC3CC2C(C)C3(C)C)CCC1O (single isomer, unassigned) [Peak B] | 0.0016 percent (w/v) | – | – | – | – | – | – | – | – | – | –
COC1CC(C2CC3CC2C(C)C3(C)C)CCC1O (centres unmarked) [2-methoxy-4-(5,5,6-trimethylbicyclo[2.2.1]hept-2-yl)cyclohexan-1-ol] | – | – | – | – | – | – | – | – | – | – | activity against Corynebacteria (Corynebacteria): highest activity
COC1CCC(C2CC3CC2C(C)C3(C)C)CC1O (centres unmarked) [2-methoxy-5-(5,5,6-trimethyl-bicyclo[2.2.1]hept-2-yl)cyclohexan-1-ol] | – | – | – | – | – | – | – | – | – | – | activity against Corynebacteria (Corynebacteria): highest activity
CC1=CCC(/C=C\C(C)C(C)O)C1(C)C (centres unmarked) [Ebanol] | – | 0.1250 | 0.1250 | 0.1250 | 0.1250 | 0.2500 | 0.2500 | 0.2500 | 0.2500 % weight/volume | 0.1250 | –
CC(C)=CCCC(C)=CCCC(C)=CCO [Farnesol, 3,7,11-trimethyl-2,6,10-dodecatrien-1-ol] | 0.0078 percent (w/v) | – | 0.0078 | – | – | – | – | – | – | – | –
CCC(=CCC1CC=C(C)C1(C)C)CO (centres unmarked) [Radjanol] | – | 0.1250 | 0.0625 | – | 0.0625 | – | – | – | 0.125. % weight/volume | – | –
CC1=CCC(CCC(C)C(C)O)C1(C)C (centres unmarked) [Sandalore] | – | 0.1250 | 0.1250 | 0.1250 | 0.1250 | 0.1250 | 0.1250 | 0.1250 | 0.2500 % weight/volume | 0.1250 | –
Oc1cc(Cl)ccc1Oc1ccc(Cl)cc1Cl [Triclosan, 2,4,4′-trichloro-2′-hydroxy-diphenyl-ether] | 0.0025 percent (w/v) | 0.000015 | 0.0015 | 0.0029 | 0.0029 | 0.0020 | 0.0029 | 0.0017 | 0.0029 % weight/volume | 0.0107 | Bacteriostatic activity S. epidermidis [2, 11]: 0.000015 percent (w/v); Bacteriostatic activity Corynebact. Ax 7 [4, 11]: 0.0025 percent (w/v); Bacteriostatic activity Corynebact. Ax 15 [8, 11]: 0.0030 percent (w/v); Minimal inhibitory concentration (MIC) Ax 19 [10]: 0.0039 % weight/volume
